Experimental data reported in US9410142B2, “Dendrimer-based excipients for the attenuation of protein aggregation” (Massachusetts Institute of Technology, priority 2010, dated 2016).
Entries after “also recorded” stand apart in the source; their conditions may differ.

Experiments:
[1] = molecular target: T1, α-chymotrypsinogen A (aCgn) (Bos taurus, UniProt P00766); assay: aCgn aggregation (monomer loss) at 52.5° C. by size exclusion HPLC; assay type: physicochemical, Bovine; conditions: for aCgn t95/t95, 0 (Shelf-Life Extension Factor): isotonic concentrations, 20 mM sodium citrate pH 5, 52.5° C., time for 5% loss of protein vs no additive; for aCgn aggregation suppression compared with other salt forms / generations (FIG. 5, 6, 8): 10 mg/mL aCgn, pH 5, 52.5° C.; for rate of aCgn monomer loss compared to the reference solution: additive 0.05 M
Procedure: The aggregation of aCgn was accelerated by incubating samples at an elevated temperature. […] In addition to all aggregation experiments being conducted at that temperature, all samples contained 10 mg/mL aCgn, held at pH 5.0 using a 20 mM sodium citrate buffer. 50 μL aliquots of each protein-cosolute mixture were placed in 0.2 mL polymerase chain reaction (PCR) tubes and then incubated in a Bio-Rad Mycycler thermal cycler with a timer initiated when the thermal cycler reached the desired temperature. Each series contained 12 samples and up to 8 different mixtures were tested at the same time during any given experiment. Samples were removed periodically and immediately placed in an ice bath to quench the aggregation reaction. The length of each experiment was planned so that the extent of reaction was such that at least 20% of the protein aggregated, making changes in the rate of aggregation pronounced. After at least five minutes in the ice bath, the samples were briefly spun in a minicentrifuge to remove precipitated aggregates and then transferred to autosampler vials.
All aCgn samples were first treated with phenylmethylsulfonyl fluoride to inhibit residual amounts of active enzyme and, after dialysis, solutions were frozen, rather than lyophilized, in 0.3 mL aliquots and used within 6 months. […] Solutions for the aggregation study were prepared by first preparing a solution of the cosolute of interest in a 20 mM sodium citrate pH 5 buffer at a concentration double that of interest (adjusting the pH to 5 if needed with the appropriate acid or an 8 M sodium hydroxide solution), then mixing 0.3 mL of this solution with 0.3 mL of a thawed aCgn solution. This solution was then divided into twelve aliquots, each 50 μL in volume, and incubated at an elevated temperature, as described below.
15 μL, of each aCgn sample were injected into an Agilent 1200 series HPLC, equipped with a Zorbax GF-250 (4.6×250 mm, 4 micron) size exclusion column and a UV-Vis detector, during a sequence. The HPLC mobile phase contained 25 mM citric acid monohydrate, 25 mM sodium acetate, and 200 mM sodium chloride with the pH adjusted to 4.0 using sodium hydroxide. The flow rate was set at 1 mL/min and samples were monitored at 280 nm.
Peak area at each time point was compared to the peak area for an unstressed sample to create a monomer loss profile normalized with respect to the initial concentration. Each profile was compared to a profile for a sample containing no cosolute to determine the change in aggregation rate upon addition of the cosolute. For a control, each aggregation experimental setup had one protein solution that contained no cosolute to verify that the baseline aggregation rate remained constant amongst all experiments.
The most notable consequence of perturbing a protein's environment is the enhancement or inhibition of protein aggregation. Deyoung L R et al. (1993) Accounts Chem Res 26:614-620; Fink A L (1998) Fold Des 3:R9-R23. The guanidinium-modified dendrimers were added to model protein solutions and incubated at an elevated temperature to determine how they influence the rate of this degradation pathway. […] At low dendrimer concentrations (0.05 M), the rate of monomer loss in the presence of the surface-modified dendrimer is slower than when compared to the reference solution. However, this aggregation rate reduction is insignificant when compared to the rate reduction induced by a high concentration of other commonly used additives such as arginine hydrochloride (ArgHCl), which is also depicted in the figure. Furthermore, as the concentration of the surface-modified dendrimer is increased, the aggregation rate reduction decreases until ultimately, the rate of aggregation is increased. At a concentration of 0.2 M, the surface-modified dendrimer induced rapid aggregation, causing a 50% loss in about 10 minutes as opposed to 30 minutes for the solution containing no cosolute. […]

[2] = molecular target: Concanavalin A (Con A) (Canavalia ensiformis, UniProt P02866); assay: Con A aggregation / shelf-life at pH 6.5 and 37° C.; assay type: physicochemical; conditions: for Con A t95/t95, 0 (Shelf-Life Extension Factor): isotonic concentrations, 40 mM sodium phosphate pH 6.5, 37° C., time for 5% loss of protein vs no additive
Procedure: This Shelf-Life Extension Factor was determined by comparing the length of time, t95, for a 5% loss of protein when in the presence of the compounds to the original length of time, t95,0 for a 5% loss. For comparison purposes, isotonic concentrations (as determined by VPO) of the compounds were used and Shelf-Life Extension Factor values for commonly used excipients at isotonic concentrations are shown as well. Shelf-life values of aCgn were determined at 52.5° C. and at 37° C. for Con A.

[3] = molecular target: T1, α-chymotrypsinogen A (aCgn); assay: Preferential interaction with aCgn by vapor pressure osmometry (VPO); assay type: physicochemical, Bovine; conditions: for Γexp preferential interaction coefficient of aCgn: 0.17-[…] dendrimer salt, VPO
Procedure: Osmolality measurements were carried out according to the previously described procedure. For improved accuracy, all samples were prepared gravimetrically using a Mettler Toledo balance with a precision of 0.1 mg. Partial molar volume values of the
Stock solutions of both BSA and lysozyme and stock solutions of the cosolutes were each prepared in a 40 mM sodium phosphate buffer, pH 6.0 (aCgn measurements were conducted in 20 mM sodium citrate buffer, pH 3.5 or pH 5.0). Stock solutions of the cosolutes were used so that a series of samples could be easily produced with varying solute concentrations by dilution with water and buffer. The protein stock solutions were further purified by placing the solutions under dialysis for 48 hours at room temperature against two changes of buffer (1 L each). […] To determine the concentration, samples of each stock solution were diluted gravimetrically with water to a final optical density of about 1.0 and the concentration determined spectrophotometrically with a PerkinElmer Lambda 35 UV/Vis spectrometer. It should be noted that the protein stock solutions were stored at 4° C. and used within one week of their preparation.
[formula] A Wescor Vapro® vapor pressure osmometer (model 5520) was used for all osmometry measurements. The instrument was calibrated using 0.1, 0.29, and 1 mol/kg osmolality standards provided by Wescor. Due to slight drifts in the calibration points, the instrument was recalibrated after every four measurements and the thermocouple was cleaned daily using concentrated ammonium hydroxide followed by a rinse with HPLC grade water. […] The data sets for each cosolute included at least 16 individually made solutions (both for the sets with and without the protein). Each sample contained approximately 80 μL of solution (40 μL of diluted cosolute stock solution and 40 μL of the protein stock solution). A minimum of three measurements on each solution were made. If the standard deviation for a particular solution was greater than 2 mmol/kg, more measurements were taken or another sample was prepared. For a given solute, data representing the dependence of osmolality on solute molality were fitted by a quadratic equation, with all fitting parameters floated. Data were weighted by the standard deviation of the individual osmolality measurements for the same solution using the nonlinear fitting program Igor Pro.
To gain further insight into how the modified dendrimer salts inhibit protein-protein interactions, preferential interaction coefficient (Γ23) values at various concentrations were determined, both experimentally via vapor pressure osmometry (VPO) measurements and computationally via MD simulations. The experimental results for the interaction between modified generation 0 PAMAM dendrimers and aCgn are expressed in Table 2, which summarizes the polynomial fit and uncertainty of the experimental data. Theoretical preferential interaction coefficient values were computed from the MD simulation using the procedure outlined in our previous work. Baynes B M and Trout B L (2003) J Phys Chem B 107:14058-14067; Shukla D et al. (2009) J Phys Chem B 113:12546-12554.

[4] = Partial molar volume from density measurements of dendrimer only solutions; assay type: physicochemical
[5] = molecular target: T1, α-chymotrypsinogen A (aCgn); assay: DSC denaturation midpoint temperature (Tm) of aCgn; assay type: physicochemical, Bovine
Procedure: The thermodynamic stability of aCgn in the presence of the arginine salts was determined by DSC (Microcal VP-Differential Scanning calorimeter located in the Biophysical Instrumentation Facility (BIF) at MIT). Each reading began with a minimum of three buffer-buffer up and down scans (in this case, the buffer also contains the cosolute of interest) to establish a reproducible thermal history followed by a single protein-buffer up scan. aCgn was analyzed at a concentration of 1 mg/mL in a 20 mM sodium citrate pH 5 buffer containing the cosolute of interest and a scan rate of 90° C./hour. The data was analyzed in the MicroCal Origin® plotting software. In the analysis, the last buffer-buffer reference scan was first subtracted from the data and then the data was normalized with respect to the protein concentration, cell volume, and scan rate. The baseline (which was progressed through the peak) was then subtracted from the plot and the denaturation midpoint temperature, Tm, was taken as the temperature at the peak maximum of the unfolding event. For each arginine salt, three concentrations (including zero concentration) were tested and Tm values with respect to cosolute concentration were fitted to a linear trend.
The thermostability of aCgn at 1 mg/mL in the presence of the modified dendrimers was assessed by determining the denaturation midpoint temperature (Tm) from DSC scans, which is a qualitative indicator of how the conformational stability of the protein is perturbed. Ghosh K et al. (2009) Proc Natl Acad Sci USA 106:10649-10654.

Compound: Cl.N=C(N)NCCC[C@H](N)C(=O)O [ArgHCl, arginine hydrochloride, reference compound]
- aCgn t95/t95, 0 (Shelf-Life Extension Factor) [1]: 3.3
- Con A t95/t95, 0 (Shelf-Life Extension Factor) [2]: 0.4

Compound: N=C(N)NCCNC(=O)CCN(CCNC(=O)CCN(CCC(=O)NCCN(CCC(=O)NCCNC(=N)N)CCC(=O)NCCNC(=N)N)CCN(CCC(=O)NCCN(CCC(=O)NCCNC(=N)N)CCC(=O)NCCNC(=N)N)CCC(=O)NCCN(CCC(=O)NCCNC(=N)N)CCC(=O)NCCNC(=N)N)CCC(=O)NCCNC(=N)N.O=P(O)(O)O.O=P(O)(O)O.O=P(O)(O)O.O=P(O)(O)O.O=P(O)(O)O.O=P(O)(O)O.O=P(O)(O)O.O=P(O)(O)O.O=P(O)(O)O.O=P(O)(O)O.O=P(O)(O)O.O=P(O)(O)O.O=P(O)(O)O.O=P(O)(O)O [Dend. 1 Gdm(H2PO4)]
- aCgn aggregation suppression compared with other salt forms / generations (FIG. 5, 6, 8) [1]: lower for all concentrations
- aCgn t95/t95, 0 (Shelf-Life Extension Factor) [1]: 16.3

Compound: N=C(N)NCCNC(=O)CCN(CCNC(=O)CCN(CCC(=O)NCCN(CCC(=O)NCCNC(=N)N)CCC(=O)NCCNC(=N)N)CCN(CCC(=O)NCCN(CCC(=O)NCCNC(=N)N)CCC(=O)NCCNC(=N)N)CCC(=O)NCCN(CCC(=O)NCCNC(=N)N)CCC(=O)NCCNC(=N)N)CCC(=O)NCCNC(=N)N.O=S(=O)(O)O.O=S(=O)(O)O.O=S(=O)(O)O.O=S(=O)(O)O.O=S(=O)(O)O.O=S(=O)(O)O.O=S(=O)(O)O [Dend. 1 Gdm(SO4)1/2]
- Con A t95/t95, 0 (Shelf-Life Extension Factor) [2]: 16.7
- Con A t95/t95, 0 (Shelf-Life Extension Factor) ([2]; listed as generation 1 dendrimer with a guanidinium sulfate surface): greater than 15
- Con A t95/t95, 0 (Shelf-Life Extension Factor) ([2]; listed as sulfate form of the generation 1 modified dendrimer): 16.7
- Con A shelf-life, times longer than with glycerol or sucrose ([2]; pH 6.5, 37° C.): over 10 times

Compound: Cl.Cl.Cl.Cl.Cl.Cl.N=C(N)NCCNC(=O)CCN(CCC(=O)NCCNC(=N)N)CCN(CCC(=O)NCCNC(=N)N)CCC(=O)NCCNC(=N)N [GdmCl, Generation 0 Polyamidoamine (PAMAM) dendrimer with a surface modified to guanidinium]
- Γ23/[3] preferential interaction with aCgn ([3]; 50 mg/mL aCgn, 20 mM sodium citrate pH 5, maximum dendrimer 0.2 mol/L): −8.1 ± 3.6 mol/mol
- Γexp preferential interaction coefficient of aCgn [3]: −1.5
- Γexp preferential interaction coefficient of aCgn ([3]; listed as chloride salt): −1.5±0.7
- rate of aCgn monomer loss compared to the reference solution [1]: slower
- time for 50% loss of aCgn monomer ([1]; additive 0.2 M, no cosolute 30 minutes): about 10 minutes
- V0 partial molar volume at infinite dilution [4]: 0.5217 L/mol
- rate of lowering the melting temperature of aCgn relative to ordinary GdmCl [5]: double
- dTm/d[3] aCgn denaturation midpoint temperature increment ([5]; 1 mg/mL aCgn, 20 mM sodium citrate pH 5, maximum dendrimer 0.2 mol/L): −13.9 K * L/mol
- rate of decrease of Tm of aCgn ([5]; concentrations less than 0.2 mol/L): 13.9 ° C.*M^−1

Compound: OCC(O)CO [Glycerol, reference compound]
- Con A t95/t95, 0 (Shelf-Life Extension Factor) [2]: 1.3

Compound: O=S(=O)([O-])[O-].[Na+].[Na+] [Na2SO4, sodium sulfate, reference compound]
- aCgn t95/t95, 0 (Shelf-Life Extension Factor) [1]: 3.1

Compound: OC[C@H]1O[C@@](CO)(O[C@H]2O[C@H](CO)[C@@H](O)[C@H](O)[C@H]2O)[C@@H](O)[C@@H]1O [Sucrose, reference compound]
- aCgn t95/t95, 0 (Shelf-Life Extension Factor) [1]: 1.9

Compound: CC(=O)O [acetate]
- aCgn aggregation suppression compared with other salt forms / generations (FIG. 5, 6, 8) [1]: moderately improves the performance; also recorded: only improved slightly

Compound: Generation 1 PAMAM Dendrimer, Ethylene Diamine Core, with Guanidinium Chloride Surface Groups [G1-Gdn]
- rate of aCgn monomer loss compared to the reference solution [1]: large increase in the rate of aggregation
